# Measurements published in patent publication US10576062B2, “Carbamoyloxymethyl triazole cyclohexyl acids as LPA antagonists” (Bristol-Myers Squibb Company, priority 2016, dated 2020).
# Biological target: T1, human LPA1 (Homo sapiens, UniProt Q92633)
# T1 construct: expressed in transfected cells; host or cells: Chinese hamster ovary (CHO) cells
# Experiment: LPA1 functional antagonist assay (LPA-induced calcium flux)
# Type: cell-based
# Details: CHO cells overexpressing human LPA1; inhibition of calcium flux induced by 10 nM LPA; read-out: hLPA1 IC50
# Experimental: The effectiveness of compounds of the present invention as LPA1 inhibitors can be determined in an LPA1 functional antagonist assay as follows: Chinese hamster ovary cells overexpressing human LPA1 were plated overnight (15,000 cells/well) in poly-D-lysine coated 384-well microplates (Greiner bio-one, Cat #781946) in DMEM/F12 medium (Gibco, Cat #11039). Following overnight culture, cells were loaded with calcium indicator dye (AAT Bioquest Inc, Cat #34601) for 30 minutes at 37° C. The cells were then equilibrated to room temperature for 30 minutes before the assay. Test compounds solubilized in DMSO were transferred to 384 well non-binding surface plates (Corning, Cat #3575) using the Labcyte Echo acoustic dispense and diluted with assay buffer [1×HBSS with calcium/magnesium (Gibco Cat #14025-092), 20 mM HEPES (Gibco Cat #15630-080) and 0.1% fatty acid free BSA (Sigma Cat #A9205)] to a final concentration of 0.5% DMSO. Diluted compounds were added to the cells by FDSS6000 (Hamamatsu) at final concentrations ranging from 0.08 nM to 5 μM. and were then incubated for 20 min at room temperature at which time LPA (Avanti Polar Lipids Cat #857130C) was added at final concentrations of 10 nM to stimulate the cells. […] IC50 values were determined by fitting data to a 4-parameter logistic equation (GraphPad Prism, San Diego Calif.).
# T1 sequence (Q92633 whole entry): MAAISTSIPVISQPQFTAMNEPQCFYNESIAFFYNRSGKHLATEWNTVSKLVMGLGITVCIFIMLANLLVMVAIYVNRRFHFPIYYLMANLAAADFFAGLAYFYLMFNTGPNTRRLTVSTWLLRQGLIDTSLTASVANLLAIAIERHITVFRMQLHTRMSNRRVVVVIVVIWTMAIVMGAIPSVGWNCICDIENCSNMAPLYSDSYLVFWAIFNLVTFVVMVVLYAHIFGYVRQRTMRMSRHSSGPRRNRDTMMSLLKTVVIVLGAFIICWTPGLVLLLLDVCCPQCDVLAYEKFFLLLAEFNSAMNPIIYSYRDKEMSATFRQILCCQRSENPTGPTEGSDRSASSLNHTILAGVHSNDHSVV
row,IC50,SMILES
1,384 nM,"CC(OC(=O)N(C)CC1CCC1)c1c(-c2ccc(O[C@H]3CCC[C@H](C(=O)O)C3)cc2)nnn1C (mixture of isomers) [Example 12, (1S,3S)-3-(4-(5-(1-(((cyclobutylmethyl)(methyl)carbamoyl)oxy)ethyl)-1-methyl-1H-1,2,3-triazol-4-yl)phenoxy)cyclohexane-1-carboxylic Acid]"

# Same assay, conditions: human LPA1; read-out: hLPA1 IC50
row,IC50,SMILES
1,178 nM,"Cc1nc(-c2nnn(C)c2COC(=O)N2CCCC(C)C2)ccc1O[C@H]1CCC[C@H](C(=O)O)C1 (mixture of isomers) [Example 161, (1S,3S)-3-((2-methyl-6-(1-methyl-5-(((3-methylpiperidine-1-carbonyl)oxy)methyl)-1H-1,2,3-triazol-4-yl)pyridin-3-yl)oxy)cyclohexane-1-carboxylic acid]"
2,104 nM,"Cc1nc(-c2nnn(C)c2COC(=O)N2CCC(C(C)C)C2)ccc1O[C@H]1CCC[C@H](C(=O)O)C1 (mixture of isomers) [Example 163, (1S,3S)-3-((6-(5-(((3-isopropylpyrrolidine-1-carbonyl)oxy)methyl)-1-methyl-1H-1,2,3-triazol-4-yl)-2-methylpyridin-3-yl)oxy)cyclohexane-1-carboxylic acid]"
3,83 nM,"Cc1nc(-c2nnn(C)c2COC(=O)N2CCC(C3CC3)C2)ccc1O[C@H]1CCC[C@H](C(=O)O)C1 (mixture of isomers) [Example 164, (1S,3S)-3-((6-(5-(((3-cyclopropylpyrrolidine-1-carbonyl)oxy)methyl)-1-methyl-1H-1,2,3-triazol-4-yl)-2-methylpyridin-3-yl)oxy)cyclohexane-1-carboxylic acid]"
4,102 nM,"CCC1CCN(C(=O)OCc2c(-c3ccc(O[C@H]4CCC[C@H](C(=O)O)C4)c(C)n3)nnn2C)C1 (mixture of isomers) [Example 165, (1S,3S)-3-((6-(5-(((3-ethylpyrrolidine-1-carbonyl)oxy)methyl)-1-methyl-1H-1,2,3-triazol-4-yl)-2-methylpyridin-3-yl)oxy)cyclohexane-1-carboxylic acid]"

# Same assay, conditions: read-out: hLPA1 IC50
row,SMILES,IC50
1,"CCC(C)N(C)C(=O)OCc1c(-c2ccc(O[C@H]3CCC[C@H](C(=O)O)C3)cc2)nnn1C (mixture of isomers) [Example 68, (trans)-3-(4-(5-(((sec-butyl(methyl)carbamoyl)oxy)methyl)-1-methyl-1H-1,2,3-triazol-4-yl)phenoxy)cyclohexane-1-carboxylic acid]",320 nM
2,"CCC(C1CCC1)N(C)C(=O)OCc1c(-c2ccc(O[C@H]3CCC[C@H](C(=O)O)C3)c(C)n2)nnn1C (mixture of isomers) [Example 99, (1S,3S)-3-((6-(5-((((1-cyclobutylpropyl)(methyl)carbamoyl)oxy)methyl)-1-methyl-1H-1,2,3-triazol-4-yl)-2-methylpyridin-3-yl)oxy)cyclohexane-1-carboxylic acid]",144 nM
3,"Cc1nc(-c2nnn(C)c2COC(=O)N2CCC(C)C2)ccc1O[C@H]1CCC[C@H](C(=O)O)C1 (mixture of isomers) [Example 147, (1S,3S)-3-((2-methyl-6-(1-methyl-5-(((3-methylpyrrolidine-1-carbonyl)oxy)methyl)-1H-1,2,3-triazol-4-yl)pyridin-3-yl)oxy)cyclohexane-1-carboxylic acid]",250 nM
4,"CCC1CCCN1C(=O)OCc1c(-c2ccc(O[C@H]3CCC[C@H](C(=O)O)C3)c(C)n2)nnn1C (mixture of isomers) [Example 152, (1S,3S)-3-((6-(5-(((2-ethylpyrrolidine-1-carbonyl)oxy)methyl)-1-methyl-1H-1,2,3-triazol-4-yl)-2-methylpyridin-3-yl)oxy)cyclohexane-1-carboxylic acid]",157 nM
5,"Cc1nc(-c2nnn(C)c2COC(=O)N2CCCC2CC(C)C)ccc1O[C@H]1CCC[C@H](C(=O)O)C1 (mixture of isomers) [Example 153, (1S,3S)-3-((6-(5-(((2-isobutylpyrrolidine-1-carbonyl)oxy)methyl)-1-methyl-1H-1,2,3-triazol-4-yl)-2-methylpyridin-3-yl)oxy)cyclohexane-1-carboxylic acid]",163 nM
6,"Cc1nc(-c2nnn(C)c2COC(=O)N2CCCC2C(F)(F)F)ccc1O[C@H]1CCC[C@H](C(=O)O)C1 (mixture of isomers) [Example 154, (1S,3S)-3-((2-methyl-6-(1-methyl-5-(((2-(trifluoromethyl)pyrrolidine-1-carbonyl)oxy)methyl)-1H-1,2,3-triazol-4-yl)pyridin-3-yl)oxy)cyclohexane-1-carboxylic acid]",321 nM
7,"Cc1nc(-c2nnn(C)c2COC(=O)N2CCC2C)ccc1O[C@H]1CCC[C@H](C(=O)O)C1 (mixture of isomers) [Example 157, (1S,3S)-3-((2-methyl-6-(1-methyl-5-(((2-methylazetidine-1-carbonyl)oxy)methyl)-1H-1,2,3-triazol-4-yl)pyridine-3-yl)oxy)cyclohexane-1-carboxylic acid]",529 nM

# Second part, the compound after the results:
row,IC50,SMILES
1,28 nM,"Cc1nc(-c2nnn(C)c2COC(=O)N(C)C(C)C2CCC2)ccc1O[C@H]1CCC[C@H](C(=O)O)C1 (mixture of isomers) [Example 20, (1S,3S)-3-((6-(5-((((1-cyclobutylethyl)(methyl)carbamoyl)oxy)methyl)-1-methyl-1H-1,2,3-triazol-4-yl)-2-methylpyridin-3-yl)oxy)cyclohexane-1-carboxylic acid]"
2,47 nM,"CCCC(C)N(C)C(=O)OCc1c(-c2ccc(O[C@H]3CCC[C@H](C(=O)O)C3)cn2)nnn1C (mixture of isomers) [Example 24, (1S,3S)-3-((6-(1-methyl-5-(((methyl(pentan-2-yl)carbamoyl)oxy)methyl)-1H-1,2,3-triazol-4-yl)pyridin-3-yl)oxy)cyclohexane-1-carboxylic acid]"
3,25 nM,"CCCC(C)N(C)C(=O)OCc1c(-c2ccc(O[C@H]3CCC[C@H](C(=O)O)C3)c(F)c2)nnn1C (mixture of isomers) [Example 28, (1S,3S)-3-(2-fluoro-4-(1-methyl-5-(((methyl(pentan-2-yl)carbamoyl)oxy)methyl)-1H-1,2,3-triazol-4-yl)phenoxy)cyclohexane-1-carboxylic acid]"
4,36 nM,"CCCC(C)N(C)C(=O)OCc1c(-c2ccc(O[C@H]3CCC[C@H](C(=O)O)C3)c(C)n2)nnn1C (mixture of isomers) [Example 31, (1S,3S)-3-((2-methyl-6-(1-methyl-5-(((methyl(pentan-2-yl)carbamoyl)oxy)methyl)-1H-1,2,3-triazol-4-yl)pyridin-3-yl)oxy)cyclohexane-1-carboxylic acid]"
5,23 nM,"CCCC(C)N(C)C(=O)OCc1c(-c2ccc(O[C@H]3CCC[C@H](C(=O)O)C3)c(C)c2)nnn1C (mixture of isomers) [Example 39, (1S,3S)-3-(2-methyl-4-(1-methyl-5-(((methyl(pentan-2-yl)carbamoyl)oxy)methyl)-1H-1,2,3-triazol-4-yl)phenoxy)cyclohexane-1-carboxylic acid]"
6,20 nM,"CC(C1CC1)N(C)C(=O)OCc1c(-c2ccc(O[C@H]3CCC[C@H](C(=O)O)C3)c(F)c2)nnn1C (mixture of isomers) [Example 45, (1S,3S)-3-(4-(5-((((1-cyclopropylethyl)(methyl)carbamoyl)oxy)methyl)-1-methyl-1H-1,2,3-triazol-4-yl)-2-fluorophenoxy)cyclohexane-1-carboxylic acid]"
7,19 nM,"CC(C1CCC1)N(C)C(=O)OCc1c(-c2ccc(O[C@H]3CCC[C@H](C(=O)O)C3)cc2)nnn1C (mixture of isomers) [Example 54, (1S,3S)-3-(4-(5-((((1-cyclobutylethyl)(methyl)carbamoyl)oxy)methyl)-1-methyl-1H-1,2,3-triazol-4-yl)phenoxy)cyclohexane-1-carboxylic acid]"
8,142 nM,"CCCC(C)N(C)C(=O)OCc1c(-c2ccc(O[C@H]3CCC[C@H](C(=O)O)C3)cc2)nnn1C (mixture of isomers) [Example 57, trans-3-(4-(1-methyl-5-(((methyl(pentan-2-yl)carbamoyl)oxy)methyl)-1H-1,2,3-triazol-4-yl)phenoxy)cyclohexane-1-carboxylic acid]"
9,80 nM,"CC(C1CC1)N(C)C(=O)OCc1c(-c2ccc(O[C@H]3CCC[C@H](C(=O)O)C3)cc2)nnn1C (mixture of isomers) [Example 65, trans-3-(4-(5-((((1-cyclopropylethyl)(methyl)carbamoyl)oxy)methyl)-1-methyl-1H-1,2,3-triazol-4-yl)phenoxy)cyclohexane-1-carboxylic acid]"
10,91 nM,"Cc1nc(-c2nnn(C)c2COC(=O)N2CCC(CC3CC3)C2)ccc1O[C@H]1CCC[C@H](C(=O)O)C1 (mixture of isomers) [Example 150, (1S,3S)-3-((6-(5-(((3-(cyclopropylmethyl)pyrrolidine-1-carbonyl)oxy)methyl)-1-methyl-1H-1,2,3-triazol-4-yl)-2-methylpyridin-3-yl)oxy)cyclohexane-1-carboxylic acid]"
11,101 nM,"Cc1nc(-c2nnn(C)c2COC(=O)N2CCC(CC(C)C)C2)ccc1O[C@H]1CCC[C@H](C(=O)O)C1 (mixture of isomers) [Example 151, (1S,3S)-3-((6-(5-(((3-isobutylpyrrolidine-1-carbonyl)oxy)methyl)-1-methyl-1H-1,2,3-triazol-4-yl)-2-methylpyridin-3-yl)oxy)cyclohexane-1-carboxylic acid]"
